The target of the assay is T1, hGRK-2 (Homo sapiens, UniProt P25098).
T1 sequence (P25098 1-689): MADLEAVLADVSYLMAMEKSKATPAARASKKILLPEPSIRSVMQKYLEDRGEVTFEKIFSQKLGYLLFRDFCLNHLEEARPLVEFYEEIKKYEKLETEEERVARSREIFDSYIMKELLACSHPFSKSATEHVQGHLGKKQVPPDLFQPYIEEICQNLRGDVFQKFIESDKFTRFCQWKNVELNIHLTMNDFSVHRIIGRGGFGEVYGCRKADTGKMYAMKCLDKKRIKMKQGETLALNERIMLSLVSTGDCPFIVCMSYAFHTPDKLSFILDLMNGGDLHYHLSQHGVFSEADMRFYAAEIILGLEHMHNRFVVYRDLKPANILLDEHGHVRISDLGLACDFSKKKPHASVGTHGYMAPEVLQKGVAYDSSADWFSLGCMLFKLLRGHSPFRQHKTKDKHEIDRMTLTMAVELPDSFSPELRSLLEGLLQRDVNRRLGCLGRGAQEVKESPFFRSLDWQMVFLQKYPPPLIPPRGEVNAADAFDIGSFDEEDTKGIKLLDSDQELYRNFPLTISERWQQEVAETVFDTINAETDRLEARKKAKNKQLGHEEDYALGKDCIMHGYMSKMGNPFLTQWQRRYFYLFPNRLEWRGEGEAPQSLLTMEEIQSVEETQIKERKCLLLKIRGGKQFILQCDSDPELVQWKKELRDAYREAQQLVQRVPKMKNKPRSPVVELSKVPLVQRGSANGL
Nature of the assay: luciferase-based (Kinase-Glo) biochemical kinase inhibition assay, hGRK-2. The note with it: luciferase assay, casein substrate, 10 μM ATP; read-out: GRK-2 inhibition, Ki class. As for the experimental part: The inhibition of G-protein-coupled receptor kinases including hGRK-2 was determined for the hydrazide compounds using a biochemical assay. The inhibition of GRK-3, GRK-5 and GRK-6 was also determined using the same assay for some of the hydrazide derivatives.
The protein kinase inhibition was determined using a biochemical assay utilizing the light emission of a luciferase reaction. The luciferase-based assay operates on the following reaction principles: [drawing 10]
An inhibitor of GRK-2 will increase in the amount of ATP in solution, as shown. Thus, an inhibitor of GRK-2 will drive the luciferase reaction to the right, resulting in more light emitted. The amount of light emitted is proportional to the inhibition resulting from the GRK-2 inhibitor. The luciferase-based assay was also used to test some of the hydrazides for the inhibition properties towards other kinases.
The test procedure was as follows:
• 50 mM HEPES, pH 7.5 • 10 mM MgCl2 • 100 μM activated sodium orthovanadate • 0.01% CHAPS • 0.1% BSA • 1 mM DTT (added fresh daily) 10× Assay Buffer Stock: • 500 mM HEPES, pH 7.5 • 100 mM MgCl2 • 1 mM activated sodium orthovanadate • 0.1% CHAPS • 1% BSA (leave out for 10× compound dilution buffer) Final Assay Conditions: • 50 μM test compound • 20 μM casein • 10 μM ATP • 50 nM hGRK2 • 4.5% DMSO • 90-120 minute incubation
Stopped by addition of 30 μl 3×-diluted Kinase-Glo reagent containing 0.01% trypan blue. Counted on FUSION plate reader.
Compound Dilution and Transfer
Prepare sufficient buffer containing 40% DMSO to add 20 μl/well to the number of plates being assayed. This buffer should not contain BSA because it will precipitate with addition of 40% DMSO. (EXAMPLE: To make 3000 ml compound dilution buffer: 1200 ml DMSO, 180 ml 10× compound dilution buffer, 1615 ml ultrapure water, 3 ml 1M DTT.).
Using Multidrop, add 20 μl of compound dilution buffer to all wells of the 384-well daughter plate (add 1 μl DMSO to control wells). This will result in a daughter plate which contains 21 μl of ˜500 μM test compound.
Using the PlateTrak, transfer 5 μl of the test compounds to a 384-well, non-binding, white microtiter plate.
Prepare sufficient volume of buffer (with BSA and 1 mM DTT) containing 125 nM GRK2 and 25 μM ATP. (Example: To 219 ml of buffer was added 550 μl 10 mM ATP and 350 μl 79 μM GRK2).
Using Multidrop, add 20 μl of GRK2/ATP mixture to all wells of the microtiter plate.
Prepare sufficient volume of buffer (with BSA and 1 mM DTT) containing 40 μM casein. (EXAMPLE: To 211 ml buffer add 8.8 ml 1 mM casein)
Using Multidrop, add 25 μl to columns 1 through 23 of the microtiter plate. Add 25 μl of complete buffer to column 24 (blanks).
Mix reaction gently by tapping (Multidrop addition of casein does a decent job of mixing), stack plates and incubate at room temperature for between 90 and 120 minutes. Assay progression can be tracked in a separate plate if desired. Target 20-30% ATP consumption. Try to avoid exceeding 40% consumption as kinetics might become non-linear due to substrate (ATP) depletion.
Addition of Kinase-Glo Reagents
The Kinase-Glo reagent can be diluted 3-fold with no loss of data quality in this assay. Additionally, since the library contains many colored compounds which will quench the light emitted from the well resulting in a false negative (kinase inhibitors result in less ATP consumption thus more light emitted), the entire reaction is subject to intentional quench to override this effect. This intentional quench is accomplished by the addition of 0.01% trypan blue to the Kinase-Glo reagents. (EXAMPLE: 100 ml 1× Kinase-Glo reagents (prepared according to product insert), 200 ml assay buffer, 7.5 ml 0.4% trypan blue.
Using Multidrop, add 30 μl to all wells of the assay plate.
Count on FUSION plate reader in luminescence mode.
Background: Kinase-Glo reads ATP consumption through a luciferase reaction.

Each structure is given as a SMILES string. A value given as a limit tells only on which side of the number the result lay.

In general, Ki refers to a dissociation constant, usually derived from enzyme kinetics or from competition with a known ligand. Regarding `Cc1ccc(Oc2cccc(NCC(=O)N/N=C/c3c(Cl)cncc3Cl)c2)cc1` [Example 35, (3-p-Tolyloxy-phenylamino)-acetic acid [1-(3,5-dichloro-pyridin-4-yl)-meth-(E)-ylidene]-hydrazide], the Ki was 1 to 10 µM. In the case of `O=C(CNc1ccc(Br)cc1)N/N=C/c1ccncc1` [Example 36, (4-Bromo-phenylamino)-acetic acid [1-pyridin-4-yl-meth-(E)-ylidene]-hydrazide] it was 1 to 10 µM; in that of `O=C(COc1cccc(Cl)c1)N/N=C/c1ccncc1` [Example 38, (3-Chloro-phenoxy)-acetic acid [1-pyridin-4-yl-meth-(E)-ylidene]-hydrazide], > 10 µM; in that of `N#Cc1cccc(NCC(=O)N/N=C/c2ccncc2)c1` [Example 39, (3-Cyano-phenylamino)-acetic acid [1-pyridin-4-yl-meth-(E)-ylidene]-hydrazide], 1 to 10 µM. In the case of `O=C(CNc1ccccc1)N/N=C/c1ccncc1` [Example 42, Phenylamino-acetic acid [1-pyridin-4-yl-meth-(E)-ylidene]-hydrazide] it was 0.1 to 1 µM; in that of `O=C(CNc1cccc(Br)c1)N/N=C/c1ccncc1` [Example 44, (3-Bromo-phenylamino)-acetic acid [1-pyridin-4-yl-meth-(E)-ylidene]-hydrazide], 0.1 to 1 µM; in that of `Cc1cccc(NCC(=O)N/N=C/c2ccncc2)c1` [Example 46, (3-Methyl-phenylamino)-acetic acid [1-pyridin-4-yl-meth-(E)-ylidene]-hydrazide], 1 to 10 µM. Take `O=C(CNc1cccc(I)c1)N/N=C/c1ccncc1` [Example 49, (3-Iodo-phenylamino)-acetic acid [1-pyridin-4-yl-meth-(E)-ylidene]-hydrazide]: the Ki lay within 0.1 to 1 µM. The value for `O=C(CNc1cccc(C(F)(F)F)c1)N/N=C/c1ccncc1` [Example 50, (3-Trifluoromethyl-phenylamino)-acetic acid [1-pyridin-4-yl-meth-(E)-ylidene]-hydrazide] was 1 to 10 µM.

Take `O=C(CNc1ccc(F)cc1)N/N=C/c1ccncc1` [Example 53, (4-fluoro-phenylamino)-acetic acid [1-pyridin-4-yl-meth-(E)-ylidene]-hydrazide]: the Ki was in the range of 1 to 10 µM.

For `O=C(CNc1ccc(C(F)(F)F)cc1)N/N=C/c1ccncc1` [Example 54, (4-Trifluoromethyl-phenylamino)-acetic acid [1-pyridin-4-yl-meth-(E)-ylidene]-hydrazide], the Ki was > 10 µM.

Regarding `Cc1ccc(NCC(=O)N/N=C/c2ccncc2)cc1` [Example 56, (4-Methyl-phenylamino)-acetic acid [1-pyridin-4-yl-meth-(E)-ylidene]-hydrazide], the Ki was > 10 µM. In the case of `O=C(CNc1ccc(Cl)cc1)N/N=C/c1ccncc1` [Example 57, (4-Chloro-phenylamino)-acetic acid [1-pyridin-4-yl-meth-(E)-ylidene]-hydrazide] it was 1 to 10 µM; in that of `CC(C)Oc1cccc(NCC(=O)N/N=C/c2ccncc2)c1` [Example 58, (3-Isopropoxy-phenylamino)-acetic acid [1-pyridin-4-yl-meth-(E)-ylidene]-hydrazide], 1 to 10 µM; in that of `CCc1cccc(NCC(=O)N/N=C/c2ccncc2)c1` [Example 59, (3-Ethyl-phenylamino)-acetic acid [1-pyridin-4-yl-meth-(E)-ylidene]-hydrazide], 1 to 10 µM. As to `N#Cc1ccc(NCC(=O)N/N=C/c2ccncc2)cc1` [Example 60], the Ki was in the range of 1 to 10 µM. In the case of `CC(C)c1cccc(NCC(=O)N/N=C/c2ccncc2)c1` [Example 61, (3-Isopropyl-phenylamino)-acetic acid [1-pyridin-4-yl-meth-(E)-ylidene]-hydrazide] it was > 10 µM; in that of `CS(=O)(=O)Nc1cccc(NCC(=O)N/N=C/c2ccncc2)c1` [Example 64], > 10 µM; in that of `Cc1ccccc1NCC(=O)N/N=C/c1ccncc1` [Example 65, o-Tolylamino-acetic acid [1-pyridin-4-yl-meth-(E)-ylidene]-hydrazide], > 10 µM. The value for `CCOc1ccccc1NCC(=O)N/N=C/c1ccncc1` [Example 66, (2-Ethoxy-phenylamino)-acetic acid [1-pyridin-4-yl-meth-(E)-ylidene]-hydrazide] was > 10 µM; that for `COc1ccccc1NCC(=O)N/N=C/c1ccncc1` [Example 67, (2-Methoxy-phenylamino)-acetic acid [1-pyridin-4-yl-meth-(E)-ylidene]-hydrazide] was > 10 µM.

For `CCc1ccccc1NCC(=O)N/N=C/c1ccncc1` [Example 68, (2-Ethyl-phenylamino)-acetic acid [1-pyridin-4-yl-meth-(E)-ylidene]-hydrazide], the Ki was > 10 µM. Take `CC(C)c1ccccc1NCC(=O)N/N=C/c1ccncc1` [Example 69, (2-Isopropyl-phenylamino)-acetic acid [1-pyridin-4-yl-meth-(E)-ylidene]-hydrazide]: the Ki is > 10 µM. In the case of `O=C(CNc1ccccc1Cc1ccccc1)N/N=C/c1ccncc1` [Example 70, (2-Benzyl-phenylamino)-acetic acid [1-pyridin-4-yl-meth-(E)-ylidene]-hydrazide], the Ki was 1 to 10 µM.

Regarding `O=C(CNc1ccc(I)cc1)N/N=C/c1ccncc1` [Example 71, (4-Iodo-phenylamino)-acetic acid [1-pyridin-4-yl-meth-(E)-ylidene]-hydrazide], the Ki was > 10 µM. Turning to `CC(=O)Nc1cccc(NCC(=O)N/N=C/c2ccncc2)c1` [Example 72, N-(3-{[1-Pyridin-4-yl-meth-(E)-ylidene-hydrazinocarbonylmethyl]-amino}-phenyl)-acetamide], the Ki is > 10 µM.

For `CS(=O)(=O)c1cccc(NCC(=O)N/N=C/c2ccncc2)c1` [Example 73, (3-Methanesulfonyl-phenylamino)-acetic acid [1-pyridin-4-yl-meth-(E)-ylidene]-hydrazide], the Ki lay in the range of 1 to 10 µM. Consider `O=C(CNc1ccccc1N1CCCCC1)N/N=C/c1ccncc1` [Example 74, (2-Piperidin-1-yl-phenylamino)-acetic acid [1-pyridin-4-yl-meth-(E)-ylidene]-hydrazide], for which the Ki is > 10 µM.

`NC(=O)c1ccc(NCC(=O)N/N=C/c2ccncc2)cc1` [Example 75, 4-{[1-Pyridin-4-yl-meth-(E)-ylidene-hydrazinocarbonylmethyl]-amino}-benzamide]: the Ki is > 10 µM.
